The values that follow come from patent US9145411B2, “Substituted amino-pyrimidine derivatives” (Asana Biosciences, LLC, priority 2012, dated 2015).

Each structure is given as a SMILES string.

Broadly, the IC50 is the concentration that gives 50% inhibition.

Experiment [1] deals with T1, PI3Kα (wild-type) (Homo sapiens, UniProt P42336).
T1 construct: made in house; host or cells: SF9 insect cells
Description: PI3 Kinase TR-FRET assay, PI3Kα (wild-type). The note with it: wild-type P110/P85α, 10 μM ATP. Type of experiment: biochemical. In a few lines: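 Sf9-expressed, Ni-purified p110/p85α (5 ng) with PIP2 was preincubated with compound for 60 min at room temperature in buffer with 40 mM MgCl2 and 5 mM DTT. The reaction ran 30 min at room temperature with 10 μM PIP2 and 10 μM ATP. The TR-FRET 665/615 nm ratio was used to derive IC50 from dose-response curves.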

Experiment [2] concerns the target T2, mTOR kinase (Homo sapiens, UniProt P42345).
T2 construct: purchased Millipore, USA
Kind of experiment: mTOR kinase TR-FRET assay. Type of experiment: biochemical. As to conditions: 20 μM ATP. In a few lines:
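Test compounds were pre-incubated 60 min with mTOR (5 ng), then ULight-p70 S6K (Thr389) peptide (50 nM) and ATP (20 μM) were added in HEPES 50 mM pH 7.5, EGTA, MnCl2 3 mM. After 60 min at room temperature, EDTA stop and Eu-anti-phospho antibody TR-FRET (665/615 nm) gave IC50 from sigmoidal variable-slope fits.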

Experiment [3] has as its system pAkt(T308). Kind of experiment: In-cell Western assay, pAkt(T308), PC3 cells. As to conditions: Homo sapiens, PC-3, 2 hours incubation. Type of experiment: cell-based. The essentials:
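PC3 cells, 22,000/well in Ham's F12K, exposed to serial compound dilutions for 2 h, then fixed and immunostained for each phospho-epitope. Eu-labelled secondary read by time-resolved fluorescence (ex 340, em 615 nm), corrected by Hoechst 33258 signal (ex 355, em 460 nm). IC50 from sigmoidal dose-response fit.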

The test system of experiment [4] is pAkt(S473). Description: In-cell Western assay, pAkt(S473), PC3 cells. Type of experiment: cell-based. As to conditions: Homo sapiens, PC-3, 2 hours incubation. How it is done:
(§1) Cells from human prostate cancer cell line PC3 (American Type Culture Collection (ATCC), Manassas, Va. 20108 USA) were seeded at an optimal density of 22,000 cell/well in 96-well plates containing Ham's F12K medium (90 μL) and incubated overnight. The compound dilutions were carried out in 100% DMSO followed by a dilution in the medium. Test compounds were added in serial dilutions to the wells and incubated for 2 hours. The cells were washed and fixed with 4% paraformaldehyde. After incubation at room temperature for 1 hour in the dark, blocking was done for 2 hours at room temperature. Primary antibodies for pAkt(S473) ([…] phosphorylated at serine 473), pAkt(T308) (Akt phosphorylated at threonine 308) and for pS6RP (S235/236) (phosphorylated at serine 235/236) (commercially available from Cell Signaling Technology®, whose protocol was followed for the in-cell western assay, were diluted to the required concentration and added to the corresponding wells followed by overnight incubation at 4° C. Eu-labeled rabbit (PE) (Perkin-Elmer USA catalog #AD0106) secondary antibody was added and incubated for 2 hours at room temperature. Delfia® enhancement solution (cat #1244-105, Perkin Elmer USA) was subsequently added to the plate before taking the reading at 615 nm with excitation wavelength of 340 nm, after which 0.5 μg/mL of Hoechst® 33258 dye (Catalog #86140-5, Sigma) was added to the plate and fluorescence emission was read at 460 nm with 355 nm excitation, to evaluate the correction factor. IC50 values were calculated using a sigmoidal dose-response curve fit in GraphPad Prism® v5 software.

Experiment [5] has as its system pS6RP (S235/236). Description: In-cell Western assay, pS6RP (S235/236), PC3 cells. It counts as cell-based. The note with it: Homo sapiens, PC-3, 2 hours incubation. How it is done: as §1
For experiment [6], the system named is PC3 cells. Kind of experiment: XTT assay for cell viability, PC3 cells. Type of experiment: cell-based. The note with it: Homo sapiens, PC-3; PC3 cell proliferation, 96 hours. In a few lines: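 Log-phase PC3 cells (1000/well) were seeded for 24 h, then exposed to serially diluted compounds (DMSO dilutions) for 96 h. Viability was measured by XTT dye conversion at 37 °C, with absorbance read at 465 nm. EC50 was obtained from a sigmoidal dose-response fit.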
A general note: Tetrazolium dyes change colour on reduction, which living cells bring about.

T2 sequence (P42345 1362-2549 limits assumed): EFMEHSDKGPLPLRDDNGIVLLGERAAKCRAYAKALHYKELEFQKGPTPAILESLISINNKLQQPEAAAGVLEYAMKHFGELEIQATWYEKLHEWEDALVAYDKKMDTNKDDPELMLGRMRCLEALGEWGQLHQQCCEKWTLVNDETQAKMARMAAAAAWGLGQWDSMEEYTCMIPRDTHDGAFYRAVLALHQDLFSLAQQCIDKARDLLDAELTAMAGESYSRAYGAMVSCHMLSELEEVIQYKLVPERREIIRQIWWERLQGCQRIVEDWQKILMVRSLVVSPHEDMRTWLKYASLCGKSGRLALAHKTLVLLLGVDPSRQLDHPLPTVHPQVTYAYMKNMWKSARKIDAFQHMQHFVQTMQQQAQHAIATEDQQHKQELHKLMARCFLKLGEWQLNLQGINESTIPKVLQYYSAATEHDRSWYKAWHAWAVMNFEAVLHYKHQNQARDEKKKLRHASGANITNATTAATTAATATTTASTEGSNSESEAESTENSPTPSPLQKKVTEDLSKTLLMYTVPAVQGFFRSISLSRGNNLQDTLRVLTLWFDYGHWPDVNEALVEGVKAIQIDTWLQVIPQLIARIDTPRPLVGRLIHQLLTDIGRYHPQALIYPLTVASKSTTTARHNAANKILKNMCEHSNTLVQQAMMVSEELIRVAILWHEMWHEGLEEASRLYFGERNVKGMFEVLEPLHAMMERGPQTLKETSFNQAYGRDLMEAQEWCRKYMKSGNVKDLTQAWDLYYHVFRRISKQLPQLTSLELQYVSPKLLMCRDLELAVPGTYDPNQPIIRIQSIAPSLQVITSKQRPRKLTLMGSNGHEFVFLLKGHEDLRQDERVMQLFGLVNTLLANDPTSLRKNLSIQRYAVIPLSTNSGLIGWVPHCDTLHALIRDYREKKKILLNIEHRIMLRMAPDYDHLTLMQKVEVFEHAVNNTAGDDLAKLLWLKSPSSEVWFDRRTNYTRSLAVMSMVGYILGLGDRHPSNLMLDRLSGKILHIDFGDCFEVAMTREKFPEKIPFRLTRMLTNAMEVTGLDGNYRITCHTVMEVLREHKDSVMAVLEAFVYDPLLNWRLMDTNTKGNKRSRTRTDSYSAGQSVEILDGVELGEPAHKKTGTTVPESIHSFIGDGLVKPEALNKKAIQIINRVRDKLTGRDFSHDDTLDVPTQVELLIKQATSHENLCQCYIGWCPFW
T1 sequence (P42336 whole entry, species assumed): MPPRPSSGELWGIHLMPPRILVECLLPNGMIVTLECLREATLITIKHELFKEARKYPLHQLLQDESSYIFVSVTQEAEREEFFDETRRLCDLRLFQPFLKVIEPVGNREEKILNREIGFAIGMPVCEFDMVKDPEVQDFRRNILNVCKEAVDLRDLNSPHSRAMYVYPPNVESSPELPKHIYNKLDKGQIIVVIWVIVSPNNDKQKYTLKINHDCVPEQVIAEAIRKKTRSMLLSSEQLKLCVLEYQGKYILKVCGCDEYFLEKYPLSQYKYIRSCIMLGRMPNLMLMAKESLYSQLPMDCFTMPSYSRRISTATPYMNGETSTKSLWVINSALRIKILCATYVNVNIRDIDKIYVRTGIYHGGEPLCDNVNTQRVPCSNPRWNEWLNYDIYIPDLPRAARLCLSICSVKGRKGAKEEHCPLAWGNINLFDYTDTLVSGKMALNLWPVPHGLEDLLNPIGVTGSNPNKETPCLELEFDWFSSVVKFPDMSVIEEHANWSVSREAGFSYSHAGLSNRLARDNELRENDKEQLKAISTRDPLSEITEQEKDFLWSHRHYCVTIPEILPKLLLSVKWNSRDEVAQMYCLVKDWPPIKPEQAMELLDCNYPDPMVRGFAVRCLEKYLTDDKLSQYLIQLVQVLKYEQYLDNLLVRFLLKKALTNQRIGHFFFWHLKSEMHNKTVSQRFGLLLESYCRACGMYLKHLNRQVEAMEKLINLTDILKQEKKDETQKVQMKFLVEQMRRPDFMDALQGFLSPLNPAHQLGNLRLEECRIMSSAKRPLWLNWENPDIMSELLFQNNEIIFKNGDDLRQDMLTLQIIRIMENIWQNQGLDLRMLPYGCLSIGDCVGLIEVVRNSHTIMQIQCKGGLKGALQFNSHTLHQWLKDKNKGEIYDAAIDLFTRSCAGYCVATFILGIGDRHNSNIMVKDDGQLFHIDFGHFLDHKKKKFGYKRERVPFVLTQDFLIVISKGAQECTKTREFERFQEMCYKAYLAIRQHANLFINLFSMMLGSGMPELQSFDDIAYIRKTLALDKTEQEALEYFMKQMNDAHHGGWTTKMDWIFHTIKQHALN
T1 sequence (P27986 whole entry partner, species assumed): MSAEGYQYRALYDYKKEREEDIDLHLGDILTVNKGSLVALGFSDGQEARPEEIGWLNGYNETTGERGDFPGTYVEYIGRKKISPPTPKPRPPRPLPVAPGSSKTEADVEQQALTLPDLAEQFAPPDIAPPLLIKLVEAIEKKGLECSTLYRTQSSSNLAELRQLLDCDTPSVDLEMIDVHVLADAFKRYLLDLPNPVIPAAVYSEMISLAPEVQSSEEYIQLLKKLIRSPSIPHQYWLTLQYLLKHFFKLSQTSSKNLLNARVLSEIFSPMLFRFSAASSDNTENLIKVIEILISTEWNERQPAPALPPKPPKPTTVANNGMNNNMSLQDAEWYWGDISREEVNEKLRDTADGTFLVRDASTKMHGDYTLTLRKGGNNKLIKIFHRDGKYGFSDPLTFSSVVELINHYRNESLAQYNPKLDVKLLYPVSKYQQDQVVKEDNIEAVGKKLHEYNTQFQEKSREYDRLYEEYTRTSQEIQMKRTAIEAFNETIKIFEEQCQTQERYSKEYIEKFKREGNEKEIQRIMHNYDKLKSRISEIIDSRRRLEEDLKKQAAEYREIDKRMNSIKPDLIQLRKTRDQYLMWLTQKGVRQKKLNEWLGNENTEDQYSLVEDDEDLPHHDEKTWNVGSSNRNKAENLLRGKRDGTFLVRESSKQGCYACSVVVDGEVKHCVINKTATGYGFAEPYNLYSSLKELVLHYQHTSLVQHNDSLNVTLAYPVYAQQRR

On to `CC(=O)Nc1cccc(-c2cnc3c(N4CCOCC4)nc(-c4cnc(N)nc4)nc3c2)c1` [Example 3, N-(3-(2-(2-Aminopyrimidin-5-yl)-4-morpholinopyrido[3,2-d]pyrimidin-7-yl)-phenyl)acetamide], for which the half-maximal inhibitory concentration (IC50) in experiment [1] is less than 0.05 µM; in experiment [2], less than 0.05 µM; in experiment [3], 0.1 to 0.5 µM; in experiment [4] it was 0.1 to 0.5 µM; in experiment [5], 0.1 to 0.5 µM; in experiment [6], 0.1 to 0.5 µM.

As for `Nc1ncc(-c2nc(N3CCOCC3)c3ncc(-c4cccc(NC(=O)C5CC5)c4)cc3n2)cn1` [Example 7, N-(3-(2-(2-Aminopyrimidin-5-yl)-4-morpholinopyrido[3,2-d]pyrimidin-7-yl)-phenyl)cyclopropanecarboxamide], the concentration for half-maximal inhibition (IC50) was less than 0.05 µM in experiment [1]; less than 0.05 µM in experiment [2]; 0.1 to 0.5 µM in experiment [3]; less than 0.1 µM in experiment [4]; 0.1 to 0.5 µM in experiment [5]; 0.1 to 0.5 µM in experiment [6].

In the case of `N#CC1(C(=O)Nc2cccc(-c3cnc4c(N5CCOCC5)nc(-c5cnc(N)nc5)nc4c3)c2)CC1` [Example 61, N-(3-(2-(2-amino-pyrimidin-5-yl)-4-morpholinopyrido[3,2-d]pyrimidin-7-yl)phenyl)-1-cyanocyclopropane-carboxamide], the IC50 in experiment [1] was less than 0.05 µM; in experiment [2], less than 0.05 µM; in experiment [3], less than 0.1 µM; in experiment [4], 0.1 to 0.5 µM; in experiment [5], less than 0.1 µM; in experiment [6] it was 0.1 to 0.5 µM.
